Data from ChEMBL document CHEMBL6087479, “Discovery of a Potent and Selective GSPT1 Molecular Glue Degrader for the Treatment of Castration-Resistant Prostate Cancer” (J Med Chem, 2025).
Values belong to the compound of their own block, whether it stands above or below them. The source made the active and inactive calls. The calls are words filed in the database; no cut-off is given here.

Experiments:
[1] = target: Protein cereblon/Bromodomain-containing protein 4 (Homo sapiens) (UniProt O60885+Q96SW2); assay: Molecular glue degradation activity at CRBN/BRD4 in human 22Rv1 cells at 12 to 1000 nM incubated for 6 hrs by Immunoblotting analysis; format: cell-based; settings: dose 12-1000 nM
CWR22R [2] = assay: Downregulation of BRD2 protein level in human 22Rv1 cells at 500 nM incubated for 6 hrs by mass spectrometry-based label-free quantitative proteomics analysis; format: functional, cell-based
CWR22R [3] = assay: Downregulation of GSPT1 protein level in human 22Rv1 cells at 500 nM incubated for 6 hrs by mass spectrometry-based label-free quantitative proteomics analysis; format: functional, cell-based
LNCaP = assay: cells; settings: Homo sapiens, 96 h
Description: Antiproliferative activity against human LNCaP cells assessed as inhibition of cell proliferation incubated for 96 hrs by CellTiter-Glo assay

CWR22R [4] = assay: cells; settings: Homo sapiens, 22Rv1, 96 h
Description: Antiproliferative activity against human 22Rv1 cells assessed as inhibition of cell proliferation incubated for 96 hrs by CellTiter-Glo assay

LNCaP C4-2B = assay: cells; settings: Homo sapiens, 96 h
Description: Antiproliferative activity against human LNCaP C4-2B cells assessed as inhibition of cell proliferation incubated for 96 hrs by CellTiter-Glo assay

[5] = target: Protein cereblon/Eukaryotic peptide chain release factor GTP-binding subunit ERF3A (Homo sapiens) (UniProt Q96SW2+P15170); assay: Protac activity at CRBN/GSPT1 in human 22Rv1 cells assessed as GSPT1 degradation at 12 to 1000 nM incubated for 6 hrs by Western blotting analysis; format: cell-based; settings: dose 12-1000 nM
CWR22R [6] = assay: Inhibition of colony formation in human 22Rv1 cells at 6.25 to 25 nM incubated for 14 days by crystal violet staining based assay; format: functional, cell-based; settings: dose 6.25-25 nM, time 14.0 day
[7] = target: Bromodomain-containing protein 4 (Homo sapiens, UniProt O60885); assay: Binding affinity to BRD4 BD1 (unknown origin) assessed as dissociation constant by BLI assay
CWR22R [8] = assay: Downregulation of BRD4 protein level in human 22Rv1 cells at 500 nM incubated for 6 hrs by mass spectrometry-based label-free quantitative proteomics analysis; format: functional, cell-based
CWR22R [9] = assay: Downregulation of GSPT1 protein level in human 22Rv1 cells incubated for 6 hrs by Immunoblotting analysis; format: functional, cell-based; settings: dose 12-1000 nM
CWR22R [10] = assay: Downregulation of GSPT1 protein level in human 22Rv1 cells at 300 nM by Immunoblotting analysis; format: functional, cell-based; settings: time 1-6 hrs
[11] = Downregulation of GSPT1 protein level in human 22Rv1 cells at 12 to 1000 nM incubated for 6 hrs by Immunoblotting analysis; settings: 22Rv1, 6 h
CWR22R [12] = assay: Antiproliferative activity against human 22Rv1 cells assessed as inhibition of cell proliferation by CellTiter-Glo assay
CWR22R [13] = assay: Downregulation of GSPT1 mRNA level in human 22Rv1 cells at 100 to 300 nM incubated for 12 hrs by qRT-PCR analysis; format: functional, cell-based; settings: dose 100-300 nM
CWR22R [14] = assay: Reduction of GSPT1 in siCRBN transfected human 22Rv1 cells at 500 nM incubated for 6 hrs by Western blotting analysis; format: functional, cell-based
[15] = Binding affinity to […]/DDB1/N-terminal H6-Avi-tagged CRBN TBD (unknown origin) expressed in BL21 (DE3) cells assessed as dissociation constant by BLI assay; design: species or system Homo sapiens
[16] = target: Eukaryotic peptide chain release factor GTP-binding subunit ERF3A (Homo sapiens) (UniProt P15170); assay: Binding affinity to GSPT1 (unknown origin) by BLI assay
CWR22R [17] = assay: Antiproliferative activity against siCRBN knockdown human 22Rv1 cells assessed as inhibition of cell growth by Cell-titer Glo luminescent assay; format: functional, cell-based
CWR22R [18] = assay: Downregulation of BCL2 expression in human 22Rv1 cells incubated for 12 hrs by qRT-PCR analysis; format: functional, cell-based
CWR22R [19] = assay: Downregulation of CDK2 expression in human 22Rv1 cells incubated for 12 hrs by qRT-PCR analysis; format: functional, cell-based
CWR22R [20] = assay: Downregulation of E2F3 expression in human 22Rv1 cells incubated for 12 hrs by qRT-PCR analysis; format: functional, cell-based
CWR22R [21] = assay: Downregulation of EGFR expression in human 22Rv1 cells incubated for 12 hrs by qRT-PCR analysis; format: functional, cell-based
CWR22R [22] = assay: Downregulation of HSP90B1 expression in human 22Rv1 cells incubated for 12 hrs by qRT-PCR analysis; format: functional, cell-based
CWR22R [23] = assay: Downregulation of TMPRSS2 expression in human 22Rv1 cells incubated for 12 hrs by qRT-PCR analysis; format: functional, cell-based
CWR22R [24] = assay: Downregulation of AR-FL mRNA level in human 22Rv1 cells at 500 nM incubated for 12 hrs by qRT-PCR analysis; format: functional, cell-based
CWR22R [25] = assay: Downregulation of AR-V7 mRNA level in human 22Rv1 cells at 500 nM incubated for 12 hrs by qRT-PCR analysis; format: functional, cell-based
CWR22R [26] = assay: Downregulation of PSA mRNA level in human 22Rv1 cells at 500 nM incubated for 12 hrs by qRT-PCR analysis; format: functional, cell-based
CWR22R [27] = assay: Downregulation of c-MYC mRNA level in human 22Rv1 cells at 500 nM incubated for 12 hrs by qRT-PCR analysis; format: functional, cell-based
CWR22R [28] = assay: Downregulation of AR-FL protein level in human 22Rv1 cells at 12 to 1000 nM incubated for 12 hrs by Immunoblotting analysis; format: functional, cell-based; settings: dose 12-1000 nM
CWR22R [29] = assay: Downregulation of AR-V7 protein level in human 22Rv1 cells at 12 to 1000 nM incubated for 12 hrs by Immunoblotting analysis; format: functional, cell-based; settings: dose 12-1000 nM
CWR22R [30] = assay: Downregulation of PSA protein level in human 22Rv1 cells at 12 to 1000 nM incubated for 12 hrs by Immunoblotting analysis; format: functional, cell-based; settings: dose 12-1000 nM
CWR22R [31] = assay: Downregulation of c-MYC protein level in human 22Rv1 cells at 12 to 1000 nM incubated for 12 hrs by Immunoblotting analysis; format: functional, cell-based; settings: dose 12-1000 nM
CWR22R [32] = assay: Downregulation of BCL2 level in human 22Rv1 cells at 12 to 1000 nM incubated for 12 hrs by Immunoblotting analysis; format: functional, cell-based; settings: dose 12-1000 nM
CWR22R [33] = assay: Downregulation of BCL-XL level in human 22Rv1 cells at 12 to 1000 nM incubated for 12 hrs by Immunoblotting analysis; format: functional, cell-based; settings: dose 12-1000 nM
CWR22R [34] = assay: Downregulation of MCL-1 level in human 22Rv1 cells at 12 to 1000 nM incubated for 12 hrs by Immunoblotting analysis; format: functional, cell-based; settings: dose 12-1000 nM
CWR22R [35] = assay: Antitumor activity against human 22Rv1 cells xenografted in NOD-SCID mouse assessed as tumor growth inhibition at 10 mg/kg, ip administered once daily for 21 days relative to control; format: functional; settings: 22Rv1, 504 h, time 21 day, read-out: TGI
CWR22R [36] = assay: Antitumor activity against human 22Rv1 cells xenografted in NOD-SCID mouse assessed as tumor growth inhibition at 20 mg/kg, ip administered once daily for 21 days relative to control; format: functional; settings: 22Rv1, 504 h, time 21 day, read-out: TGI
[37] = Toxicity in wild-type NOD-SCID mouse assessed as tolerability administered intraperitoneally once daily for 21 days; settings: in vivo, ip, 504 h, time 21 day
[38] = target: Eukaryotic peptide chain release factor GTP-binding subunit ERF3A (Homo sapiens) (UniProt P15170); settings: dose 200.0 µM, time 45.0 min

Sequence of Protein cereblon/Bromodomain-containing protein 4 (Homo sapiens) (Q96SW2 whole entry, looked up, other chains not shown): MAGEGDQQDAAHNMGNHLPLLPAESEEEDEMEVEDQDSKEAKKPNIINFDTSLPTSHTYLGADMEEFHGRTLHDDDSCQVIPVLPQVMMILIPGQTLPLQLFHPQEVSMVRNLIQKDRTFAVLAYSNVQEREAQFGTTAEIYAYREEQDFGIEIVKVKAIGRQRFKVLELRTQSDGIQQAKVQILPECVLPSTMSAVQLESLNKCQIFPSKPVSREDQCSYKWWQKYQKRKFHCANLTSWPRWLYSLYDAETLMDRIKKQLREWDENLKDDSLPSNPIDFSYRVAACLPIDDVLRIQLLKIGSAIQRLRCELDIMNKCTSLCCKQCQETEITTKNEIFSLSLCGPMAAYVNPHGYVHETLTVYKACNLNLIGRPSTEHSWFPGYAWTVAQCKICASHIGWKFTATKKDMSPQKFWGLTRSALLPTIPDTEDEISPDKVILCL
Sequence of Protein cereblon/Eukaryotic peptide chain release factor GTP-binding subunit ERF3A (Homo sapiens) (P15170 whole entry, looked up): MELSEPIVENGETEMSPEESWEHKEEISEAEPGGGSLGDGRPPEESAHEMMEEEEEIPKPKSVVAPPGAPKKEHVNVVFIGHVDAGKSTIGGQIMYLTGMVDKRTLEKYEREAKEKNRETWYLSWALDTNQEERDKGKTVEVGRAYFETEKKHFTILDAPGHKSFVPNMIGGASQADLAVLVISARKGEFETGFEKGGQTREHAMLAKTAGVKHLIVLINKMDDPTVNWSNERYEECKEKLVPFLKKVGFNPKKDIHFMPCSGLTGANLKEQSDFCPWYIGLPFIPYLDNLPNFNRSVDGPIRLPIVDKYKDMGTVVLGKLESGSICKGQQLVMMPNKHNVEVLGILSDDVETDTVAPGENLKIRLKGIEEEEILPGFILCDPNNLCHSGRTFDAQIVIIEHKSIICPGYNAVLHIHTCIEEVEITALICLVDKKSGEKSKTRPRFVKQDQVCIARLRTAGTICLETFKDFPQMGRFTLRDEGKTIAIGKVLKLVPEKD
Sequence of Protein cereblon/Eukaryotic peptide chain release factor GTP-binding subunit ERF3A (Homo sapiens) (Q96SW2 whole entry, looked up): as the sequence (Q96SW2 whole entry, looked up, other chains not shown) above
Sequence of Eukaryotic peptide chain release factor GTP-binding subunit ERF3A (Homo sapiens) (P15170 whole entry): as the sequence (P15170 whole entry, looked up) above

SMILES: Cc1sc2c(c1C)C(c1ccc(Cl)cc1)=N[C@@H](CC(=O)NCCCCNC(=O)COc1cccc3c1C(=O)N(C1CCC(=O)NC1=O)C3=O)c1nnc(C)n1-2 (some centres not stated)
Activity [1]: Active | Activity (CWR22R [2]): Active | Activity (CWR22R [3]): inactive | IC50 (LNCaP): 2250 nM | IC50 (CWR22R [4]): 1750 nM | IC50 (LNCaP C4-2B): 3.11 µM

SMILES: Nc1cccc2c1C(=O)N(C1CCC(=O)NC1=O)C2=O (configuration not stated) [POMALIDOMIDE]
IC50 (LNCaP): > 10000 nM | IC50 (CWR22R [4]): > 10000 nM | IC50 (LNCaP C4-2B): > 10 µM

SMILES: COc1cc2onc(C)c2cc1NS(=O)(=O)c1cc(Br)ccc1OC
IC50 (LNCaP): 2520 nM | IC50 (CWR22R [4]): 1610 nM | IC50 (LNCaP C4-2B): 1.8 µM

SMILES: COc1ccc(Br)cc1S(=O)(=O)Nc1cc2c(C)noc2cc1OCC(=O)NCCNc1cccc2c1C(=O)N(C1CCC(=O)NC1=O)C2=O (configuration not stated)
IC50 (LNCaP): > 10000 nM | IC50 (CWR22R [4]): > 10000 nM | IC50 (LNCaP C4-2B): > 10 µM

Now from value to compound, other results behind:

Activity [1]: inactive | IC50 (LNCaP): 2480 nM | IC50 (CWR22R [4]): 909 nM | IC50 (LNCaP C4-2B): > 10 µM
SMILES: COc1ccc(Br)cc1S(=O)(=O)Nc1cc2c(C)noc2cc1OCC(=O)NCCCCCCNc1cccc2c1C(=O)N(C1CCC(=O)NC1=O)C2=O (configuration not stated)
Activity [5]: Active; Moderate Effect Of Degradation Observed

IC50 (LNCaP): > 10000 nM | IC50 (CWR22R [4]): > 10000 nM | IC50 (LNCaP C4-2B): > 10 µM
SMILES: COc1ccc(Br)cc1S(=O)(=O)Nc1cc2c(C)noc2cc1OCC(=O)NCCNC(=O)COc1cccc2c1C(=O)N(C1CCC(=O)NC1=O)C2=O (configuration not stated)

IC50 (LNCaP): > 10000 nM | IC50 (CWR22R [4]): > 10000 nM | IC50 (LNCaP C4-2B): > 10 µM
SMILES: COc1ccc(Br)cc1S(=O)(=O)Nc1cc2c(C)noc2cc1OCC(=O)NCCNc1ccc2c(c1)C(=O)N(C1CCC(=O)NC1=O)C2=O (configuration not stated)

IC50 (LNCaP): > 10000 nM | IC50 (CWR22R [4]): > 10000 nM | IC50 (LNCaP C4-2B): > 10 µM
SMILES: COc1ccc(Br)cc1S(=O)(=O)Nc1cc2c(C)noc2cc1OCC(=O)NCCCCCCNc1ccc2c(c1)C(=O)N(C1CCC(=O)NC1=O)C2=O (configuration not stated)

Activity [1]: inactive | Kd [7]: 38 µM | DC50 [11]: 19 nM | Activity [5]: Active | Activity [16]: inactive | deltaTm [38]: inactive | IC50 (LNCaP): 34 nM | IC50 (CWR22R [4]): 7 nM | IC50 (LNCaP C4-2B): 0.374 µM
SMILES: COc1ccc(Br)cc1S(=O)(=O)Nc1cc2c(C)noc2cc1OCC(=O)NCCCCCNc1cccc2c1C(=O)N(C1CCC(=O)NC1=O)C2=O (configuration not stated)
inhibition (CWR22R [6]): Active | Activity (CWR22R [2]): inactive | Activity (CWR22R [8]): inactive | Activity (CWR22R [3]): Active | Activity (CWR22R [9]): Dose-dependent-effect | Activity (CWR22R [10]): Time-dependent-effect | IC50 (CWR22R [12]): 7 nM | Activity (CWR22R [13]): inactive | Activity (CWR22R [14]): inactive | Kd [15]: 930 nM | Activity (CWR22R [17]): inactive | Activity (CWR22R [18]): Active | Activity (CWR22R [19]): Active | Activity (CWR22R [20]): Active | Activity (CWR22R [21]): Active | Activity (CWR22R [22]): Active | Activity (CWR22R [23]): Active | Activity (CWR22R [24]): Active | Activity (CWR22R [25]): Active | Activity (CWR22R [26]): Active | Activity (CWR22R [27]): Active | Activity (CWR22R [28]): Active | Activity (CWR22R [29]): Active | Activity (CWR22R [30]): Active | Activity (CWR22R [31]): Active | Activity (CWR22R [32]): Active | Activity (CWR22R [33]): Active | Activity (CWR22R [34]): Active | inhibition in vivo at 10 mg/kg (CWR22R [35]): 44% | inhibition in vivo at 20 mg/kg (CWR22R [36]): 55% | Activity [37]: Non-toxic

IC50 (LNCaP): > 10000 nM | IC50 (CWR22R [4]): 1380 nM | IC50 (LNCaP C4-2B): > 10 µM
SMILES: COc1ccc(Br)cc1S(=O)(=O)Nc1cc2c(C)noc2cc1OCC(=O)NCCCNc1ccc2c(c1)C(=O)N(C1CCC(=O)NC1=O)C2=O (configuration not stated)
